According to the supplement of paper PMC11061612:

How the values were obtained:
Capivasertib = compound: C1CN(CCC1(C(=O)N[C@@H](CCO)C2=CC=C(C=C2)Cl)N)C3=NC=NC4=C3C=CN4 [Capivasertib]; settings: max 10 µM
Procedure, shortened: (§1)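 Cancer cell lines were seeded in 1536-well plates in 7.5 μl DMEM/F12 or RPMI with 10% FBS, held 24 hours at 37°C and 5% CO2, then dosed for 72 hours (final DMSO typically 0.2%). Viability was read by CellTiter-Glo 2.0 luminescence and scaled between blank-well and DMSO-well means. The single-agent IC50 comes from dose responses fitted to a two-parameter logistic curve with a non-linear mixed effects model.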

AZD1775 = compound: C=CCn1c(=O)c2cnc(Nc3ccc(N4CCN(C)CC4)cc3)nc2n1-c1cccc(C(C)(C)O)n1 [AZD1775]; settings: max 3 µM
Procedure, shortened: as §1

Trametinib = compound: CC(=O)Nc1cccc(-n2c(=O)n(C3CC3)c(=O)c3c(Nc4ccc(I)cc4F)n(C)c(=O)c(C)c32)c1 [Trametinib]; settings: max 1 µM
Procedure, shortened: as §1

Palbociclib = compound: CC(=O)c1c(C)c2cnc(Nc3ccc(N4CCNCC4)cn3)nc2n(C2CCCC2)c1=O [Palbociclib]; settings: max 10 µM
Procedure, shortened: as §1

AZD1390 = compound: CC(C)n1c(=O)n(C)c2cnc3cc(F)c(-c4ccc(OCCCN5CCCCC5)nc4)cc3c21 [AZD1390]; settings: max 0.3 µM
Procedure, shortened: as §1

Venetoclax = compound: CC1(C)CCC(CN2CCN(c3ccc(C(=O)NS(=O)(=O)c4ccc(NCC5CCOCC5)c([N+](=O)[O-])c4)c(Oc4cnc5[nH]ccc5c4)c3)CC2)=C(c2ccc(Cl)cc2)C1 [Venetoclax]; settings: max 1 µM
Procedure, shortened: as §1

Dasatinib = compound: CC1=C(C(=CC=C1)Cl)NC(=O)C2=CN=C(S2)NC3=CC(=NC(=N3)C)N4CCN(CC4)CCO [Dasatinib]; settings: max 2 µM
Procedure, shortened: as §1

SG3199 = compound: CC1=CN2[C@@H](C1)C=NC3=CC(=C(C=C3C2=O)OC)OCCCCCOC4=C(C=C5C(=C4)N=C[C@@H]6CC(=CN6C5=O)C)OC [SG3199]; settings: max 0.001 µM
Procedure, shortened: as §1

AZD2811 = compound: CCN(CCO)CCCOc1ccc2c(Nc3cc(CC(=O)Nc4cccc(F)c4)[nH]n3)ncnc2c1 [AZD2811]; settings: max 1 µM
Procedure, shortened: as §1

SN-38 = compound: CCc1c2c(nc3ccc(O)cc13)-c1cc3c(c(=O)n1C2)COC(=O)[C@]3(O)CC [SN-38]; settings: max 0.3 µM
Procedure, shortened: as §1

AZD0156 = compound: CN(C)CCCOc1ccc(-c2ccc3ncc4c(c3c2)n(C2CCOCC2)c(=O)n4C)cn1 [AZD0156]; settings: max 3 µM
Procedure, shortened: as §1

AZD4320 = compound: CN(CC[C@H](CSC1=CC=CC=C1)NC2=C(C=C(C=C2)S(=O)(=O)NC(=O)C3=CC=C(C=C3)N4CCC(CC4)[C@H](C5=CC=CC=C5C6=CC=C(C=C6)Cl)O)S(=O)(=O)C(F)(F)F)CCO [AZD4320]; settings: max 1 µM
Procedure, shortened: as §1

Alisertib = compound: COc1cc(Nc2ncc3c(n2)-c2ccc(Cl)cc2C(c2c(F)cccc2OC)=NC3)ccc1C(=O)O [Alisertib]; settings: max 10 µM
Procedure, shortened: as §1

Gefitinib = compound: COc1cc2ncnc(Nc3ccc(F)c(Cl)c3)c2cc1OCCCN1CCOCC1 [Gefitinib]; settings: max 10 µM
Procedure, shortened: as §1

Prexasertib = compound: COc1cccc(OCCCN)c1-c1cc(Nc2cnc(C#N)cn2)n[nH]1 [Prexasertib]; settings: max 1 µM
Procedure, shortened: as §1

Doxorubicin = compound: COc1cccc2c1C(=O)c1c(O)c3c(c(O)c1C2=O)C[C@@](O)(C(=O)CO)C[C@@H]3O[C@H]1C[C@H](N)[C@H](O)[C@H](C)O1 [Doxorubicin]; settings: max 1 µM
Procedure, shortened: as §1

AZD5153 = compound: COc1nnc2ccc(N3CCC(c4ccc(OCCN5CCN(C)C(=O)[C@H]5C)cc4)CC3)nn12 [AZD5153]; settings: max 1 µM
Procedure, shortened: as §1

Lapatinib = compound: CS(=O)(=O)CCNCc1ccc(-c2ccc3ncnc(Nc4ccc(OCc5cccc(F)c5)c(Cl)c4)c3c2)o1 [Lapatinib]; settings: max 10 µM
Procedure, shortened: as §1

AZD8186 = compound: C[C@@H](Nc1cc(F)cc(F)c1)c1cc(C(=O)N(C)C)cc2c(=O)cc(N3CCOCC3)oc12 [AZD8186]; settings: max 3 µM
Procedure, shortened: as §1

Crizotinib = compound: C[C@@H](Oc1cc(-c2cnn(C3CCNCC3)c2)cnc1N)c1c(Cl)ccc(F)c1Cl [Crizotinib]; settings: max 10 µM
Procedure, shortened: as §1

Savolitinib = compound: C[C@@H](c1ccc2nccn2c1)n1nnc2ncc(-c3cnn(C)c3)nc21 [Savolitinib]; settings: max 1 µM
Procedure, shortened: as §1

AZD6738 = compound: C[C@@H]1COCCN1C2=NC(=NC(=C2)C3(CC3)[S@](=N)(=O)C)C4=C5C=CNC5=NC=C4 [AZD6738]; settings: max 10 µM
Procedure, shortened: as §1

AZD5991 = compound: Cc1c2c(nn1C)CSCc1cc(n(C)n1)CSc1cc(c3ccccc3c1)OCCCc1c(C(=O)O)n(C)c3c-2c(Cl)ccc13 [AZD5991]; settings: max 1 µM
Procedure, shortened: as §1

AZD7648 = compound: Cc1cc2ncnn2cc1Nc1ncc2c(n1)n(C1CCOCC1)c(=O)n2C [AZD7648]; settings: max 10 µM
Procedure, shortened: as §1

Taselisib = compound: Cc1nc(-c2cn3c(n2)-c2ccc(-c4cnn(C(C)(C)C(N)=O)c4)cc2OCC3)n(C(C)C)n1 [Taselisib]; settings: max 10 µM
Procedure, shortened: as §1

Selumetinib = compound: Cn1cnc2c(F)c(Nc3ccc(Br)cc3Cl)c(C(=O)NOCCO)cc21 [Selumetinib]; settings: max 10 µM
Procedure, shortened: as §1

Olaparib = compound: O=C(c1cc(Cc2n[nH]c(=O)c3ccccc23)ccc1F)N1CCN(C(=O)C2CC2)CC1 [Olaparib]
Procedure, shortened: as §1

Cell Line | IC50, cell viability 72 h (Capivasertib) | IC50, cell viability 72 h (AZD1775) | IC50, cell viability 72 h (Trametinib) | IC50, cell viability 72 h (Palbociclib) | IC50, cell viability 72 h (AZD1390) | IC50, cell viability 72 h (Venetoclax) | IC50, cell viability 72 h (Dasatinib) | IC50, cell viability 72 h (SG3199) | IC50, cell viability 72 h (AZD2811) | IC50, cell viability 72 h (SN-38) | IC50, cell viability 72 h (AZD0156) | IC50, cell viability 72 h (AZD4320) | IC50, cell viability 72 h (Alisertib) | IC50, cell viability 72 h (Gefitinib) | IC50, cell viability 72 h (Prexasertib) | IC50, cell viability 72 h (Doxorubicin) | IC50, cell viability 72 h (AZD5153) | IC50, cell viability 72 h (Lapatinib) | IC50, cell viability 72 h (AZD8186) | IC50, cell viability 72 h (Crizotinib) | IC50, cell viability 72 h (Savolitinib) | IC50, cell viability 72 h (AZD6738) | IC50, cell viability 72 h (AZD5991) | IC50, cell viability 72 h (AZD7648) | IC50, cell viability 72 h (Taselisib) | IC50, cell viability 72 h (Selumetinib) | IC50, cell viability 72 h (Olaparib; max 10 µM) | IC50, cell viability 72 h (Olaparib; max 3 µM)
SCC-3 (B-Cell Non-Hodgkin's Lymphoma) | > 10000 nM | 370 nM | > 1000 nM | > 10000 nM | > 300 nM | > 1000 nM | > 2000 nM | > 1 nM | > 1000 nM | 6.1 nM | > 3000 nM | > 1000 nM | 721 nM | > 10000 nM | 17.6 nM | 386 nM | 67.4 nM | > 10000 nM | > 3000 nM | 717 nM | > 1000 nM | 1070 nM | > 1000 nM | > 10000 nM | > 10000 nM | > 10000 nM | > 10000 nM | 
KYSE-50 (Esophageal Squamous Cell Carcinoma) | > 10000 nM | 1820 nM | > 1000 nM | > 10000 nM | > 300 nM | > 1000 nM | 263 nM | > 1 nM | > 1000 nM | > 300 nM | > 3000 nM | > 1000 nM | 3860 nM | > 10000 nM | 108 nM | > 1000 nM | 664 nM | > 10000 nM | > 3000 nM | > 10000 nM | > 1000 nM | 8940 nM | > 1000 nM | > 10000 nM | 8390 nM | > 10000 nM | > 10000 nM | 
HC-1 (Other Blood Carcinomas) | > 10000 nM | 187 nM | > 1000 nM | 9650 nM | > 300 nM | > 1000 nM | 1680 nM | > 1 nM | 884 nM | 4.53 nM | > 3000 nM | 793 nM | 752 nM | > 10000 nM | 6.96 nM | 151 nM | 858 nM | > 10000 nM | > 3000 nM | > 10000 nM | > 1000 nM | 4320 nM | > 1000 nM | > 10000 nM | 2640 nM | > 10000 nM | > 10000 nM | 
LOU-NH91 (Squamous Cell Lung Carcinoma) | > 10000 nM | 1350 nM | > 1000 nM | > 10000 nM | > 300 nM | > 1000 nM | 657 nM | > 1 nM | > 1000 nM | 17.1 nM | > 3000 nM | > 1000 nM | > 10000 nM | > 10000 nM | > 1000 nM | 542 nM | 239 nM | > 10000 nM | > 3000 nM | > 10000 nM | > 1000 nM | > 10000 nM | > 1000 nM | > 10000 nM | 5870 nM | > 10000 nM | > 10000 nM | 
U-87-MG (Glioblastoma) | > 10000 nM | > 3000 nM | > 1000 nM | > 10000 nM | > 300 nM | > 1000 nM | > 2000 nM |  | > 1000 nM | 40.5 nM | > 3000 nM | > 1000 nM | > 10000 nM | > 10000 nM | > 1000 nM |  | > 1000 nM | > 10000 nM | 2450 nM | > 10000 nM | > 1000 nM | > 10000 nM | > 1000 nM | > 10000 nM | 2450 nM | > 10000 nM |  | > 3000 nM
KLE (Endometrial Carcinoma) | > 10000 nM | 1800 nM | > 1000 nM | > 10000 nM | > 300 nM | > 1000 nM | 186 nM | > 1 nM | > 1000 nM | > 300 nM | > 3000 nM | > 1000 nM | 9070 nM | > 10000 nM | > 1000 nM | > 1000 nM | 315 nM | > 10000 nM | > 3000 nM | > 10000 nM | > 1000 nM | > 10000 nM | > 1000 nM | > 10000 nM | 2430 nM | > 10000 nM | > 10000 nM | 
EW-18 (Ewing's Sarcoma) | 2440 nM | 359 nM | > 1000 nM | > 10000 nM | > 300 nM | > 1000 nM | > 2000 nM | > 1 nM | 131 nM | 106 nM | > 3000 nM | 45.4 nM | 853 nM | > 10000 nM | 43.2 nM | > 1000 nM | 376 nM | > 10000 nM | > 3000 nM | 1850 nM | > 1000 nM | 3990 nM | 60 nM | > 10000 nM | 1240 nM | > 10000 nM | > 10000 nM | 
DG-75 (Burkitt's Lymphoma) | > 10000 nM | 424 nM | > 1000 nM | 1250 nM | > 300 nM | > 1000 nM | > 2000 nM | > 1 nM | > 1000 nM | 38.7 nM | > 3000 nM | > 1000 nM | > 10000 nM | > 10000 nM | 33.5 nM | 453 nM | 24.4 nM | 8870 nM | > 3000 nM | 6980 nM | > 1000 nM | 1390 nM | > 1000 nM | > 10000 nM | > 10000 nM | > 10000 nM | > 10000 nM | 
